According to paper PMC11280027, “Conquering the beyond Rule of Five Space with an Optimized High-Throughput Caco-2 Assay to Close Gaps in Absorption Prediction” (Pharmaceutics, 2024):

tested on: not given; assay: not given; conditions: human fraction absorbed; rounded to two significant figures; ref [17]; cited from earlier work

| SMILES | Observed Human fa |
| --- | --- |
| N=C(N)NC(=O)c1nc(Cl)c(N)nc1N [Amiloride] | 0.53 |
| CC(C)CN(C[C@@H](O)[C@H](Cc1ccccc1)NC(=O)O[C@H]1CCOC1)S(=O)(=O)c1ccc(N)cc1 [Amprenavir] | 0.76 |
| Cc1cc(=O)n(-c2ccccc2)n1C [Antipyrine] | 0.98 |
| CC[C@H]1OC(=O)[C@H](C)[C@@H](O[C@H]2C[C@@](C)(OC)[C@@H](O)[C@H](C)O2)[C@H](C)[C@@H](O[C@@H]2O[C@H](C)C[C@H](N(C)C)[C@H]2O)[C@](C)(O)C[C@@H](C)CN(C)[C@H](C)[C@@H](O)[C@]1(C)O [Azithromycin] | 0.43 |
| CC(C)(C)NC(=O)N[C@H](C(=O)N1C[C@H]2[C@@H]([C@H]1C(=O)NC(CC1CCC1)C(=O)C(N)=O)C2(C)C)C(C)(C)C (stereo partly shown) [Boceprevir] | 0.92 |
| COc1ccccc1Oc1c(NS(=O)(=O)c2ccc(C(C)(C)C)cc2)nc(-c2ncccn2)nc1OCCO [Bosentan] | 0.70 |
| O=C(O)COCCN1CCN(C(c2ccccc2)c2ccc(Cl)cc2)CC1 (stereo not shown) [Cetirizine] | 0.73 |
| C[C@]12C[C@H](O)[C@H]3[C@@H](CCC4=CC(=O)CC[C@@]43C)[C@@H]1CC[C@@H]2C(=O)CO [Corticosterone] | 1.0 |
| O=C(O)Cc1ccccc1Nc1c(Cl)cccc1Cl [Diclofenac] | 0.97 |
| OCCN(CCO)c1nc(N2CCCCC2)c2nc(N(CCO)CCO)nc(N3CCCCC3)c2n1 [Dipyridamole] | 0.56 |
| CN(C)CCC=C1c2ccccc2COc2ccccc21 [Doxepin] | 0.76 |
| NS(=O)(=O)c1cc(C(=O)O)c(NCc2ccco2)cc1Cl [Furosemide] | 0.61 |
| COc1ccc2c(c1)C(=O)N(CCc1ccc(S(=O)(=O)NC(=O)NC3CCCCC3)cc1)C(=O)C2(C)C [Gliquidone] | 0.95 |
| CCN(CCO)CCCC(C)Nc1ccnc2cc(Cl)ccc12 (stereo not shown) [Hydroxychloroquine] | 0.90 |
| CC(C)(C)NC(=O)[C@@H]1CN(Cc2cccnc2)CCN1C[C@@H](O)C[C@@H](Cc1ccccc1)C(=O)N[C@H]1c2ccccc2C[C@H]1O [Indinavir] | 0.63 |
| CC(=O)N1CCN(c2ccc(OCC3COC(Cn4ccnc4)(c4ccc(Cl)cc4Cl)O3)cc2)CC1 (stereo not shown) [Ketoconazole] | 0.76 |
| Nc1nnc(-c2cccc(Cl)c2Cl)c(N)n1 [Lamotrigine] | 0.98 |
| Nc1cccc2c1CN(C1CCC(=O)NC1=O)C2=O (stereo not shown) [Lenalidomide] | 0.90 |
| CCOC(=O)N1CCC(=C2c3ccc(Cl)cc3CCc3cccnc32)CC1 [Loratadine] | 0.90 |
| CN(Cc1cnc2nc(N)nc(N)c2n1)c1ccc(C(=O)N[C@@H](CCC(=O)O)C(=O)O)cc1 [Methotrexate] | 0.64 |
| CCN(CC)CCNC(=O)c1cc(Cl)c(N)cc1OC [Metoclopramide] | 0.89 |
| Cc1cccc(C)c1OCC(C)N (stereo not shown) [Mexiletine] | 0.99 |
| O=C(NCCN1CCOCC1)c1ccc(Cl)cc1 [Moclobemide] | 0.85 |
| CNS(=O)(=O)CCc1ccc2[nH]cc(C3CCN(C)CC3)c2c1 [Naratriptan] | 0.70 |

| SMILES | Observed Human fa |
| --- | --- |
| CN1CCC[C@H]1c1cccnc1 [Nicotine] | 1.0 |
| COCCOC(=O)C1=C(C)NC(C)=C(C(=O)OC(C)C)C1c1cccc([N+](=O)[O-])c1 (stereo not shown) [Nimodipine] | 1.0 |
| CNCCC=C1c2ccccc2CCc2ccccc21 [Nortriptyline] | 1.0 |
| Cc1nccn1CC1CCc2c(c3ccccc3n2C)C1=O (stereo not shown) [Ondansetron] | 1.0 |
| CCOC(=O)C1=C[C@@H](OC(CC)CC)[C@H](NC(C)=O)[C@@H](N)C1 [Oseltamivir] | 0.75 |
| Nc1ccc(/N=N/c2ccccc2)c(N)n1 [Phenazopyridine] | 0.90 |
| O=C1NC(=O)C(c2ccccc2)(c2ccccc2)N1 [Phenytoin] | 0.93 |
| CNC(=O)Oc1ccc2c(c1)[C@]1(C)CCN(C)[C@@H]1N2C [Physostigmine] | 0.050 |
| CNC(=C[N+](=O)[O-])NCCSCc1ccc(CN(C)C)o1 [Ranitidine] | 0.56 |
| CO[C@H]1/C=C/O[C@@]2(C)Oc3c(C)c(O)c4c(c3C2=O)C2=NC3(CCN(CC(C)C)CC3)NC2=C(NC(=O)/C(C)=C\C=C\[C@H](C)[C@H](O)[C@@H](C)[C@@H](O)[C@@H](C)[C@H](OC(C)=O)[C@@H]1C)C4=O [Rifabutin] | 0.53 |
| CN(C)CCc1c[nH]c2ccc(Cn3cncn3)cc12 [Rizatriptan] | 0.90 |
| CN(CCOc1ccc(CC2SC(=O)NC2=O)cc1)c1ccccn1 (stereo not shown) [Rosiglitazone] | 1.0 |
| CC(C)c1nc(N(C)S(C)(=O)=O)nc(-c2ccc(F)cc2)c1/C=C/[C@@H](O)C[C@@H](O)CC(=O)O [Rosuvastatin] | 0.35 |
| CC[C@H]1OC(=O)[C@H](C)[C@@H](O[C@H]2C[C@@](C)(OC)[C@@H](O)[C@H](C)O2)[C@H](C)[C@@H](O[C@@H]2O[C@H](C)C[C@H](N(C)C)[C@H]2O)[C@](C)(O)C[C@@H](C)/C(=N\OCOCCOC)[C@H](C)[C@@H](O)[C@]1(C)O [Roxithromycin] | 0.86 |
| C#CCN(C)[C@H](C)Cc1ccccc1 [Selegiline] | 1.0 |
| O=C(O)c1cc(/N=N/c2ccc(S(=O)(=O)Nc3ccccn3)cc2)ccc1O [Sulfasalazine] | 0.33 |
| CNS(=O)(=O)Cc1ccc2[nH]cc(CCN(C)C)c2c1 [Sumatriptan] | 0.58 |
| CCCc1nc2c(C)cc(-c3nc4ccccc4n3C)cc2n1Cc1ccc(-c2ccccc2C(=O)O)cc1 [Telmisartan] | 0.82 |
| O=c1n(CCCN2CCN(c3cccc(Cl)c3)CC2)nc2ccccn12 [Trazodone] | 0.98 |
| OC(CCN1CCCCC1)(c1ccccc1)C1CCCCC1 (stereo not shown) [Trihexyphenidyl] | 1.0 |
| COc1ccc(C(CN(C)C)C2(O)CCCCC2)cc1 (stereo not shown) [Venlafaxine] | 0.96 |
| O=C1Cc2cc(CCN3CCN(c4nsc5ccccc45)CC3)c(Cl)cc2N1 [Ziprasidone] | 0.63 |
| CN(C)CCc1c[nH]c2ccc(C[C@H]3COC(=O)N3)cc12 [Zolmitriptan] | 0.92 |

tested on: not listed separately; assay: Bidirectional transport study with assay-ready Caco-2 cells, 7-day versus 21-day cultivation (Figure S2); conditions: human, Caco-2, pH 7.4

| SMILES | efflux ratio at 60 min |
| --- | --- |
| CN/C(=N/CCSCc1nc[nH]c1C)NC#N [Cimetidine] | > 2 |
| COc1cc2nc(N3CCN(C(=O)c4ccco4)CC3)nc(N)c2cc1OC [Prazosin] | > 2 |
| O=C(O)c1cc(/N=N/c2ccc(S(=O)(=O)Nc3ccccn3)cc2)ccc1O [Sulfasalazine] | > 2 |

tested on: Caco-2 cells; assay: as above; conditions: Caco-2 cells maintained 7 days on transwell plates; ER = Papp,BA/Papp,AB

| SMILES | efflux ratio (ER) |
| --- | --- |
| C[C@]12CC[C@@H]3c4ccc(OS(=O)(=O)O)cc4CC[C@H]3[C@@H]1CCC2=O [Compound E3S, estrone-3-sulfate] | > 2 |

same assay, conditions: Caco-2 cells maintained 21 days on transwell plates; ER = Papp,BA/Papp,AB

| SMILES | efflux ratio (ER) |
| --- | --- |
| CN/C(=N/CCSCc1nc[nH]c1C)NC#N [Cimetidine] | > 2 |
| C[C@]12CC[C@@H]3c4ccc(OS(=O)(=O)O)cc4CC[C@H]3[C@@H]1CCC2=O [Compound E3S, estrone-3-sulfate] | > 2 |
| COc1cc2nc(N3CCN(C(=O)c4ccco4)CC3)nc(N)c2cc1OC [Prazosin] | > 2 |
| O=C(O)c1cc(/N=N/c2ccc(S(=O)(=O)Nc3ccccn3)cc2)ccc1O [Sulfasalazine] | > 2 |
